From PubChem BioAssay AID192 (DTP/NCI, 2004)
Where “and” joins values, the source holds several entries; their conditions need not be identical. Equal entries are not always repeated. Inconclusive results and toxic doses are left out.

System: BDF1 mice, B16 melanoma ip, median survival T/C
Test: NCI In Vivo Anticancer Drug Screen. Data for tumor model B16 Melanoma (intraperitoneal) in B6D2F1 (BDF1) mice
Details: endpoint: median survival time, higher = longer survival
Outline: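 Tumor-bearing mice received test compound or vehicle. Survival or tumor size was then measured in both groups. The treated-group figure was divided by the control-group figure.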

[1] = dose: 12.5 mg/kg/injection, schedule: Q01DX009 (ip), vehicle: Klucel (hydroxypropylcellulose) (HPC)
[2] = dose: 25.0 mg/kg/injection, schedule: Q01DX009 (ip), vehicle: Klucel (hydroxypropylcellulose) (HPC)
[3] = dose: 50.0 mg/kg/injection, schedule: Q01DX009 (ip), vehicle: Klucel (hydroxypropylcellulose) (HPC)
[4] = dose: 50.0 mg/kg/injection, schedule: Q01DX009 (ip), vehicle: saline
[5] = dose: 100.0 mg/kg/injection, schedule: Q01DX009 (ip), vehicle: Klucel (hydroxypropylcellulose) (HPC)
[6] = dose: 400.0 mg/kg/injection, schedule: Q04DX003 (ip), vehicle: Klucel (hydroxypropylcellulose) (HPC)
[7] = dose: 100.0 mg/kg/injection, schedule: Q01DX009 (ip), vehicle: saline
[8] = dose: 200.0 mg/kg/injection, schedule: Q01DX009 (ip), vehicle: saline
[9] = dose: 100.0 mg/kg/injection, schedule: Q04DX003 (ip), vehicle: saline with Tween-80
[10] = dose: 200.0 mg/kg/injection, schedule: Q04DX003 (ip), vehicle: saline with Tween-80
[11] = dose: 400.0 mg/kg/injection, schedule: Q04DX003 (ip), vehicle: saline with Tween-80
[12] = dose: 100.0 mg/kg/injection, schedule: Q01DX009 (ip), vehicle: saline with Tween-80
[13] = dose: 200.0 mg/kg/injection, schedule: Q01DX009 (ip), vehicle: saline with Tween-80
[14] = dose: 100.0 mg/kg/injection, schedule: Q04DX003 (ip), vehicle: Klucel (hydroxypropylcellulose) (HPC)
[15] = dose: 200.0 mg/kg/injection, schedule: Q04DX003 (ip), vehicle: Klucel (hydroxypropylcellulose) (HPC)
[16] = dose: 12.5 mg/kg/injection, schedule: Q01DX009 (ip), vehicle: saline
[17] = dose: 25.0 mg/kg/injection, schedule: Q01DX009 (ip), vehicle: saline
[18] = dose: 50.0 mg/kg/injection, schedule: Q01DX009 (ip), vehicle: saline with Tween-80
[19] = dose: 200.0 mg/kg/injection, schedule: Q01DX009 (ip), vehicle: Klucel (hydroxypropylcellulose) (HPC)
[20] = dose: 400.0 mg/kg/injection, schedule: Q01DX009 (ip), vehicle: Klucel (hydroxypropylcellulose) (HPC)

Q: `CCO/C=C1\SC(=S)N(c2cccc(OC)c2)C1=O` was tested. Which T/C [1] did it give?
A: 93 % of control and 98 % of control

Q: And the T/C [2]?
A: 98 % of control and 107 % of control

Q: What about the T/C (dose: 35.0 mg/kg/injection, schedule: Q01DX009 (ip), vehicle: saline) of the same molecule?
A: 98 % of control

Q: What about the T/C [3] of the same molecule?
A: 98 % of control

Q: And the T/C [4]?
A: 100 % of control

Q: What about the T/C (dose: 75.0 mg/kg/injection, schedule: Q01DX009 (ip), vehicle: saline) of the same molecule?
A: 91 % of control

Q: And the T/C [5]?
A: 100 % of control and 102 % of control

Q: And the T/C (dose: 265.0 mg/kg/injection, schedule: Q04DX003 (ip), vehicle: Klucel (hydroxypropylcellulose) (HPC))?
A: 101 % of control

Q: And the T/C [6]?
A: 97 % of control

Q: With `CC(=O)NCCCCCCNC(C)=O` as the molecule, how does the T/C [7] read?
A: 101 % of control

Q: And the T/C [8]?
A: 105 % of control

Q: And the T/C (dose: 400.0 mg/kg/injection, schedule: Q01DX009 (ip), vehicle: saline)?
A: 87 % of control

Q: What about the T/C (dose: 800.0 mg/kg/injection, schedule: Q01DX009 (ip), vehicle: saline) of the same molecule?
A: 105 % of control

Q: Which results are given for `O=C(Nc1cccc2ccccc12)Oc1ccccc1Cc1ccccc1`?
A: T/C (dose: 100.0 mg/kg/injection, schedule: Q04DX003 (ip), vehicle: saline): 100 % of control; T/C (dose: 200.0 mg/kg/injection, schedule: Q04DX003 (ip), vehicle: saline): 106 % of control; T/C (dose: 400.0 mg/kg/injection, schedule: Q04DX003 (ip), vehicle: saline): 106 % of control

Q: Which T/C (dose: 0.63 mg/kg/injection, schedule: Q01DX009 (ip), vehicle: Klucel (hydroxypropylcellulose) (HPC)) does the source give for `O=C1C=CC(=O)c2c(Cl)ccc(O)c21` here?
A: 90 % of control

Q: And the T/C (dose: 1.25 mg/kg/injection, schedule: Q01DX009 (ip), vehicle: Klucel (hydroxypropylcellulose) (HPC))?
A: 95 % of control

Q: Which T/C [9] does the source give for `OC(Cc1cnc2ccccc2n1)(C(F)(F)F)C(F)(F)F` here?
A: 105 % of control

Q: And the T/C [10]?
A: 105 % of control

Q: And the T/C [11]?
A: 102 % of control

Q: How did the T/C [12] turn out when `O=c1[nH]c(-c2ccccc2)c(-c2ccccc2)[nH]1` was run?
A: 90 % of control

Q: What about the T/C [13] of the same molecule?
A: 95 % of control

Q: Which results are given for `Cc1ccc(S(=O)(=O)N=S2CCCC2)cc1`?
A: T/C (dose: 50.0 mg/kg/injection, schedule: Q04DX003 (ip), vehicle: Klucel (hydroxypropylcellulose) (HPC)): 100 % of control; T/C [14]: 102 % of control; T/C [15]: 103 % of control; T/C [6]: 102 % of control

Q: How did the T/C [7] turn out when `Nc1nc(N)n2c(N)nnc2n1` was run?
A: 87 % of control

Q: What about the T/C [8] of the same molecule?
A: 88 % of control

Q: What does the source list for `CCc1ccccc1NC(=O)Nc1ccccc1C`?
A: T/C [14]: 87 % of control; T/C [15]: 87 % of control; T/C [6]: 87 % of control

Q: For `CC(=O)OCC1OC(n2ccc(N)nc2=O)C(OC(C)=O)C1OC(C)=O` (configuration not stated), which T/C [16] is on record?
A: 105 % of control

Q: And the T/C [17]?
A: 105 % of control

Q: And the T/C [4]?
A: 105 % of control

Q: And the T/C [7]?
A: 109 % of control

Q: `CC(=O)NC(=O)Nc1ccccc1` was tested. Which T/C [14] did it give?
A: 97 % of control

Q: What about the T/C [15] of the same molecule?
A: 95 % of control

Q: What about the T/C [6] of the same molecule?
A: 100 % of control

Q: Which T/C [2] does the source give for `O=C(O)c1ccc2c3c(ccc(C(=O)O)c13)CC2` here?
A: 92 % of control

Q: And the T/C [3]?
A: 91 % of control

Q: Which results are given for `Cc1c(N)nc([C@H](CC(N)=O)NC[C@H](N)C(N)=O)nc1C(=O)N[C@H](C(=O)N[C@H](C)[C@@H](O)[C@H](C)C(=O)N[C@H](C(=O)NCCc1nc(-c2nc(C(=O)NCCC[S+](C)C)cs2)cs1)[C@@H](C)O)C(OC1OC(CO)C(O)C(O)C1OC1OC(CO)C(O)C(OC(N)=O)C1O)c1cnc[nH]1` (some centres not stated)?
A: T/C (dose: 1.0 mg/kg/injection, schedule: Q01DX009 (ip), vehicle: clinical formulation): 114 % of control; T/C (dose: 2.0 mg/kg/injection, schedule: Q01DX009 (ip), vehicle: clinical formulation): 121 % of control; T/C (dose: 3.9 mg/kg/injection, schedule: Q01DX009 (ip), vehicle: saline): 102 % of control; T/C (dose: 4.0 mg/kg/injection, schedule: Q01DX009 (ip), vehicle: clinical formulation): 120 % of control; T/C (dose: 7.8 mg/kg/injection, schedule: Q01DX009 (ip), vehicle: saline): 102 % of control; T/C (dose: 8.0 mg/kg/injection, schedule: Q01DX009 (ip), vehicle: clinical formulation): 124 % of control; T/C (dose: 15.6 mg/kg/injection, schedule: Q01DX009 (ip), vehicle: saline): 102 % of control; T/C (dose: 16.0 mg/kg/injection, schedule: Q01DX009 (ip), vehicle: clinical formulation): 123 % of control; T/C (dose: 31.3 mg/kg/injection, schedule: Q01DX009 (ip), vehicle: saline): 109 % of control

Q: With `O=C(NCCCl)N(c1ccccc1)c1cccc(C(F)(F)F)c1` as the molecule, how does the T/C [14] read?
A: 114 % of control

Q: What about the T/C [15] of the same molecule?
A: 105 % of control

Q: And the T/C [6]?
A: 106 % of control

Q: What does the source list for `CC(=O)OCC1OC(n2cnc3c(=S)nc[nH]c32)C(OC(C)=O)C1OC(C)=O` (configuration not stated)?
A: T/C (dose: 50.0 mg/kg/injection, schedule: Q01DX009 (ip), vehicle: suspension in saline): 114 % of control; T/C (dose: 100.0 mg/kg/injection, schedule: Q01DX009 (ip), vehicle: suspension in saline): 109 % of control; T/C [9]: 106 % of control; T/C [10]: 100 % of control; T/C [11]: 91 % of control

Q: How did the T/C (dose: 6.25 mg/kg/injection, schedule: Q01DX009 (ip), vehicle: saline) turn out when `C(CSC1=NCCN1)CSC1=NCCN1` was run?
A: 97 % of control and 102 % of control

Q: What about the T/C [16] of the same molecule?
A: 98 % of control and 107 % of control

Q: And the T/C [17]?
A: 105 % of control and 107 % of control

Q: And the T/C [4]?
A: 96 % of control and 117 % of control

Q: And the T/C [7]?
A: 101 % of control and 112 % of control

Q: What about the T/C [8] of the same molecule?
A: 107 % of control

Q: Which results are given for `Oc1ccc(I)c2cccnc12`?
A: T/C [18]: 97 % of control; T/C [12]: 100 % of control; T/C [13]: 97 % of control

Q: Which results are given for `Clc1ccc(C(c2ccccc2Cl)C(Cl)Cl)cc1` (configuration not stated)?
A: T/C [18]: 95 % of control; T/C [12]: 95 % of control; T/C [13]: 90 % of control

Q: `CNC1=C(N2CC2C)C(=O)C(NC)=C(N2CC2C)C1=O` (configuration not stated) was tested. Which T/C (dose: 1.25 mg/kg/injection, schedule: Q01DX009 (ip), vehicle: saline) did it give?
A: 109 % of control

Q: Which results are given for `N#CCc1c(Cl)ccc(Cl)c1Cl`?
A: T/C (dose: 6.25 mg/kg/injection, schedule: Q01DX009 (ip), vehicle: Klucel (hydroxypropylcellulose) (HPC)): 104 % of control; T/C [1]: 99 % of control; T/C [2]: 95 % of control; T/C [3]: 107 % of control

Q: Which results are given for `COc1ccc2nc3cc(Cl)ccc3c(NCCO)c2c1`?
A: T/C (dose: 37.5 mg/kg/injection, schedule: Q01DX009 (ip), vehicle: saline with Tween-80): 104 % of control; T/C (dose: 75.0 mg/kg/injection, schedule: Q01DX009 (ip), vehicle: saline with Tween-80): 106 % of control

Q: Which results are given for `O=C(Nc1cc(C(F)(F)F)ccc1Cl)c1ccc(Cl)cc1`?
A: T/C [5]: 104 % of control; T/C [19]: 100 % of control; T/C [20]: 103 % of control

Q: Which results are given for `O=C(c1ccccc1Cl)N(Cc1ccccc1)c1ccccc1`?
A: T/C [2]: 93 % of control; T/C [3]: 93 % of control; T/C [5]: 90 % of control and 100 % of control

Q: Which results are given for `Cc1ccccc1NC(=O)Nc1ccccc1F`?
A: T/C [14]: 93 % of control; T/C [15]: 93 % of control; T/C [6]: 100 % of control

Q: Which results are given for `O=NN(CCF)C(=O)N[C@H]1CCCC[C@H]1O`?
A: T/C (dose: 3.75 mg/kg/injection, schedule: Q01DX001 (ip), vehicle: saline): 100 % of control; T/C (dose: 7.5 mg/kg/injection, schedule: Q01DX001 (ip), vehicle: saline): 105 % of control; T/C (dose: 15.0 mg/kg/injection, schedule: Q01DX001 (ip), vehicle: saline): 101 % of control; T/C (dose: 60.0 mg/kg/injection, schedule: Q01DX001 (ip), vehicle: saline): 222 % of control

Q: How did the T/C (dose: 25.0 micrograms/kg/injection, schedule: Q01DX009 (ip), vehicle: water) turn out when `CCC(C)C1NC(=O)C(NC(=O)c2c3nc4c(C(=O)NC5C(=O)NC(C(C)CC)C(=O)N6CCCC6C(=O)N(C)CC(=O)N(C)C(C(C)C)C(=O)OC5C)cc([N+](=O)[O-])c(C)c4oc-3c(C)c(=O)c2N)C(C)OC(=O)C(C(C)C)N(C)C(=O)CN(C)C(=O)C2CCCN2C1=O` (configuration not stated) was run?
A: 110 % of control

Q: What about the T/C (dose: 50.0 micrograms/kg/injection, schedule: Q01DX009 (ip), vehicle: water) of the same molecule?
A: 119 % of control

Q: And the T/C (dose: 100.0 micrograms/kg/injection, schedule: Q01DX009 (ip), vehicle: water)?
A: 124 % of control

Q: And the T/C (dose: 400.0 micrograms/kg/injection, schedule: Q01DX009 (ip), vehicle: water)?
A: 160 % of control

Q: With `Cc1cccc(C)c1NC(=O)NC(C)C` as the molecule, how does the T/C [5] read?
A: 87 % of control

Q: What about the T/C [19] of the same molecule?
A: 115 % of control

Q: And the T/C [20]?
A: 118 % of control
